In this assay the target is recombinant eIF4E (Homo sapiens (Human), UniProt P06730). Nature of the assay: Fluorescence polarization competition assay for eIF4E binding potency. Summed up:
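Competitive displacement format: compounds compete with a fluorescent m7GDP tracer (20 nM) for 75 nM recombinant eIF4E. Incubation is 30 min at room temperature, protected from light, with 1% DMSO. Polarization read gives IC50 over eight 3-fold concentrations.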

Setting [1] is: inhibition of eIF4E/EDA-m7GDP-ATTO-550 binding, calculated IC50 values, Table 4B, read-out: IC50.
Setting [2] is: fluorescence polarization competition, 75 nM recombinant eIF4E, 20 nM EDA-m7GDP-ATTO-550, IC50 class, read-out: elF4E FP.
The mark [3] stands for this setting: inhibition of eIF4E/EDA-m7GDP-ATTO-550 binding by 50%, Table 4B calculated values, read-out: IC50.

In patent publication US11286268B1, “EIF4E-inhibiting compounds and methods” (EFFECTOR THERAPEUTICS, INC., priority 2019, dated 2022) one finds IC50 data, which are given here for 48 molecules.

Where two headings read alike, the source gives them in different places.

Sequence of recombinant eIF4E (P06730 whole entry): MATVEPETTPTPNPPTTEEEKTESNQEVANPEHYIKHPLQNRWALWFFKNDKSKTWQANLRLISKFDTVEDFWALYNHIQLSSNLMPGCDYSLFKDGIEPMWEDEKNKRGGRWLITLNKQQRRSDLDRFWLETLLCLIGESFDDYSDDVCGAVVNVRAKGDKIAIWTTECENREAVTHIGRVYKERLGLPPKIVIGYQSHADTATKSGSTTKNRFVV

For `Cc1cc(-c2cc(Cl)ccc2OCCn2c(C)nc3cc(C(F)(F)F)c(C4CCN(C)CC4)cc3c2=O)c2sc(C)c(C(=O)O)c2n1` [compound 1971], the IC50 under setting [1] is 51.9 nM.

As for `Cc1nc2cc(C(F)(F)F)c(Cl)c(C#N)c2c(=O)n1CC#Cc1ccc(Cl)cc1-c1ccnc2c(C(=O)O)csc12` [compound 554], the IC50 was less than 50 nM under setting [2] and 31.8 nM under setting [3].

As to `Cc1nc2cnc(N(C)[C@H]3CC[C@H](N(C)CC(F)F)CC3)c(C#N)c2c(=O)n1CC#Cc1ccc(Cl)cc1-c1ccnc2c(C(=O)O)csc12` [compound 1895], under setting [1], the IC50 is 12.7 nM.

In the case of `Cc1c(F)c2cc(C#N)cc(C#N)c2c(=O)n1CCOc1ccc(Cl)cc1-c1ccnc2c(C(=O)O)csc12` [compound 273], the IC50 reads like this: under setting [2], less than 50 nM; under setting [3], 30.2 nM.

In the case of `Cc1ccc2nc(C)n(CCOc3ccc(Cl)cc3-c3ccnc4c(C(=O)O)csc34)c(=O)c2c1C#N` [compound 572], the IC50 was less than 50 nM under setting [2] and 30.6 nM under setting [3].

Regarding `COc1cc(-c2cc(Cl)ccc2OCCn2cnc3cnc(C#N)cc3c2=O)cc(C(=O)O)n1` [compound 87], the IC50 runs as follows: under setting [2], more than 1000 nM; under setting [3], 1160 nM.

For the molecule `Cc1nc2cnc(N3CCN(C4CC4)CC3)c(C#N)c2c(=O)n1CC#Cc1ccc(Cl)cc1-c1ccnc2c(C(=O)O)csc12` [compound 1354], the IC50 under setting [1] was 21.6 nM.

As for `Cc1nc2cnc(N3CCN(CC4(C(F)(F)F)CC4)CC3)c(C#N)c2c(=O)n1CCOc1ccc(Cl)cc1-c1ccnc2c(C(=O)O)csc12` [compound 1471], the IC50 under setting [1] was 14.2 nM.

Take `Cc1cc(-c2cc(Cl)ccc2OCCn2c(C)nc3cc(Cl)c(N(C)C(C)(C)C)c(C#N)c3c2=O)c2scc(C(=O)O)c2n1` [compound 955]: the IC50 under setting [2] was less than 50 nM and the IC50 under setting [3] was 10.2 nM.

For the molecule `Cc1nc2cc(Cl)c(OC(F)F)c(C#N)c2c(=O)n1CCOc1ccc(Cl)cc1-c1ccnc2c(C(=O)O)csc12` [compound 546], the IC50 by setting is: under setting [2], less than 50 nM; under setting [3], 43.6 nM.

Take `Cc1nc2cnc(N(C)C3CCN(CC(F)(F)C(F)F)CC3)c(C#N)c2c(=O)n1CC#Cc1ccc(Cl)cc1-c1ccnc2c(C(=O)NS(=O)(=O)c3ccccn3)csc12` [compound 1706]: the IC50 under setting [1] is 12.1 nM.

For the molecule `Cc1ncc(C#N)c2c(=O)n(CCOc3ccc(Cl)cc3-c3ccnc4c(C(=O)O)csc34)c(C)nc12` [compound 674], the IC50 under setting [2] is less than 50 nM.

Take `CCN(c1ncc2nc(C)n(CC#Cc3ccc(Cl)cc3-c3ccnc4c(C(=O)NS(=O)(=O)C(F)(F)F)csc34)c(=O)c2c1C#N)C1CCN(C2COC2)CC1` [compound 1744]: the IC50 under setting [1] was 11.5 nM.

For `Cc1nc2cc(F)c(F)c(C#N)c2c(=O)n1CCOc1cc(F)c(Cl)cc1-c1ccnc2c(C(=O)O)csc12` [compound 506], the IC50 was 50 to 1000 nM under setting [2] and 68.9 nM under setting [3].

On to `Cc1nc2c(C(F)F)nc(C#N)cc2c(=O)n1CCOc1ccc(Cl)cc1-c1cccc(C(=O)O)c1` [compound 33], for which the IC50 is, setting by setting: under setting [2], 50 to 1000 nM; under setting [3], 203 nM.

Consider `Cc1nc2cnc(N3CCN(C4(COC(F)F)CC4)CC3)c(C#N)c2c(=O)n1CC#Cc1ccc(Cl)cc1-c1ccnc2c(C(=O)O)csc12` [compound 1510], for which, under setting [1], the IC50 was 20.1 nM.

As for `Cc1nc2cnc(N3CCN(CCF)C4(CC4)C3)c(C#N)c2c(=O)n1CCOc1ccc(Cl)cc1-c1ccnc2c(C(=O)O)csc12` [compound 1338], the IC50 under setting [1] is 9.5 nM.

Take `Cc1cc(-c2cc(Cl)ccc2OCCn2c(C)nc3cc(C(F)(F)F)c(C(C)N(C)C)c(C#N)c3c2=O)c2scc(C(=O)O)c2n1` (centres unmarked) [compound 711]: the IC50 runs as follows: under setting [2], 50 to 1000 nM; under setting [3], 77.5 nM.

As to `Cc1cc(-c2cc(Cl)ccc2OCCn2c(C)nc3cc(Cl)c(C4CCC4)c(C#N)c3c2=O)c2scc(C(=O)O)c2n1` [compound 1047], the IC50 reads like this: under setting [2], less than 50 nM; under setting [3], 21.2 nM.

Consider `Cc1cnc(C)c(-c2c(C(F)(F)F)cc3nc(C)n(CCOc4ccc(Cl)cc4-c4cc(C)nc5c(C(=O)O)csc45)c(=O)c3c2C#N)n1` [compound 968], for which the IC50 reads like this: under setting [2], less than 50 nM; under setting [3], 8.95 nM.

For `Cc1nc(N2CCN(CC(F)F)CC2)c(C#N)c2c(=O)n(CCOc3ccc(Cl)cc3-c3ccnc4c(C(=O)O)csc34)c(C)nc12` [compound 1274], the IC50 under setting [1] is 40.2 nM.

On to `CCc1cc(-c2cc(Cl)ccc2OCCn2c(C)nc3cc(C(F)(F)F)cc(C#N)c3c2=O)c2scc(C(=O)O)c2n1` [compound 330], for which the IC50 reads like this: under setting [2], less than 50 nM; under setting [3], 47.7 nM.

As to `C#Cc1c(-c2cc(Cl)ccc2OCCn2c(C)nc3cc(C(F)(F)F)cc(C#N)c3c2=O)ccnc1C(=O)O` [compound 58], the IC50 was 50 to 1000 nM under setting [2] and 50.2 nM under setting [3].

On to `CCc1cc(-c2cc(Cl)ccc2OCCn2c(C)nc3c(C)nc(-c4ccccc4)c(C#N)c3c2=O)c2scc(C(=O)O)c2n1` [compound 1015], for which the IC50 by setting is: under setting [2], less than 50 nM; under setting [3], 19.7 nM.

Take `Cc1nc2cnc(N3CCN(CCF)CC3)c(C#N)c2c(=O)n1CCOc1ccc(Cl)cc1-c1ccnc2c(C(=O)O)csc12` [compound 1302]: under setting [1], the IC50 was 30.7 nM.

In the case of `O=C(O)c1cc2ccc1CCCCCc1nc3cc(C(F)(F)F)cc(Br)c3c(=O)n1CCOc1ccc(Cl)cc1-2` [compound 2013], under setting [1], the IC50 is more than 10000 nM.

For the molecule `N#Cc1cc(C(F)(F)F)cc2nc(CF)n(CCOc3ccc(Cl)cc3-c3cccc(C(=O)O)c3)c(=O)c12` [compound 182], the IC50 under setting [2] is less than 50 nM and the IC50 under setting [3] was 43.8 nM.

For `CCc1cc(-c2cc(Cl)ccc2OCCn2c(C)nc3cc(CN(C)C)c(OC(F)F)c(C#N)c3c2=O)c2scc(C(=O)O)c2n1` [compound 896], the IC50 under setting [3] is 1.57 nM.

For `O=C(O)c1cccc(-c2cc(Cl)ccc2OCCn2c(Nc3ccccc3)nc3c(O)nccc3c2=O)c1` [compound 2000], the IC50 under setting [1] is 18200 nM.

For `N#Cc1cc(C(F)(F)F)cc2ncn(CCOc3ccc(Cl)cc3-c3ccnc(C(=O)O)c3)c(=O)c12` [compound 162], the IC50 is, setting by setting: under setting [2], less than 50 nM; under setting [3], 28.7 nM.

For `Cc1ccc(C(=O)O)c2nccc(-c3cc(Cl)ccc3OCCn3cnc4cncc(C#N)c4c3=O)c12` [compound 45], the IC50 is, setting by setting: under setting [2], more than 1000 nM; under setting [3], 2890 nM.

As for `CCN(c1ncc2nc(C)n(CC#Cc3ccc(Cl)cc3-c3ccnc4c(C(=O)NS(=O)(=O)c5ccncc5)csc34)c(=O)c2c1C#N)C1CCN([C@H]2C[C@@H](OC(F)(F)F)C2)CC1` [compound 1779], under setting [1], the IC50 is 35.1 nM.

`N#Cc1cccc2c(=O)n(CCOc3ccc(Cl)cc3-c3cccc(C(=O)O)c3)cnc12` [compound 75]: the IC50 under setting [2] is more than 1000 nM and the IC50 under setting [3] is 1400 nM.

With `Cc1nc2cc(C(F)(F)F)c(CN(C)C)c(C#N)c2c(=O)n1CCOc1ccc(Cl)cc1-c1ccnc2ccsc12` [compound 2016], the IC50 under setting [1] was 613 nM.

Regarding `N#Cc1cc2c(=O)n(CCOc3ccc(Cl)cc3-c3csc(C(=O)O)c3)cnc2cn1` [compound 80], the IC50 by setting is: under setting [2], 50 to 1000 nM; under setting [3], 110 nM.

Regarding `Cc1nc2cc(C(F)(F)F)cc(C#N)c2c(=O)n1CCOc1cnc(C#N)nc1-c1ccnc2c(C(=O)O)csc12` [compound 455], the IC50 is 50 to 1000 nM under setting [2] and 473 nM under setting [3].

Consider `CCc1cc(-c2cc(Cl)ccc2OCCn2c(C)nc3c(N(C)C)nc(C4CC4)c(C#N)c3c2=O)c2scc(C(=O)O)c2n1` [compound 1199], for which the IC50 by setting is: under setting [2], less than 50 nM; under setting [1], 18.2 nM.

Regarding `Cc1nc2cnc(N(C)C3CCN([C@H]4C[C@H](OC(F)F)C4)CC3)c(C#N)c2c(=O)n1CC#Cc1ccc(Cl)cc1-c1ccnc2c(C(=O)NS(C)(=O)=O)csc12` [compound 1761], the IC50 under setting [1] was 5.65 nM.

As to `Cc1nc2cnc(NC3CCCCC3)cc2c(=O)n1CCOc1ccc(Cl)cc1-c1cccc(C(=O)O)c1` [compound 2003], under setting [1], the IC50 was 264 nM.

In the case of `Cc1cc(-c2cc(Cl)ccc2OCCn2c(C)nc3cnc(OC4CNC4)c(C#N)c3c2=O)c2sc(C)c(C(=O)O)c2n1` [compound 869], the IC50 under setting [2] was less than 50 nM and the IC50 under setting [3] was 25.4 nM.

Take `Cc1cc(-c2cc(Cl)ccc2OCCn2c(C)nc3cc(C(F)(F)F)c(-c4cn(C)cn4)c(C#N)c3c2=O)c2scc(C(=O)O)c2n1` [compound 907]: the IC50 is, setting by setting: under setting [2], less than 50 nM; under setting [3], 7.76 nM.

As for `N#Cc1cc2c(=O)n(CCOc3ccc(Cl)cc3-c3cc(C(=O)O)c(F)cc3F)cnc2cn1` [compound 86], the IC50 is more than 1000 nM under setting [2] and 49700 nM under setting [3].

As to `Cc1nc2cc(C(F)(F)F)cc(C#N)c2c(=O)n1CCOc1ncc(Cl)cc1-c1ccnc2c(C(=O)O)csc12` [compound 259], the IC50 was 50 to 1000 nM under setting [2] and more than 1000 nM under setting [3].

As to `Cc1cc(-c2cc(Cl)ccc2OCCn2c(C)nc3cc(C(F)F)c(C)c(C#N)c3c2=O)c2scc(C(=O)O)c2n1` [compound 627], the IC50 is less than 50 nM under setting [2] and 6.72 nM under setting [3].

Take `CCC(F)(F)CN1CCC(N(C)c2ncc3nc(C)n(CC#Cc4ccc(Cl)cc4-c4ccnc5c(C(=O)O)csc45)c(=O)c3c2C#N)CC1` [compound 1502]: the IC50 under setting [1] is 26.2 nM.

As for `Cc1nc2cnc(C3CCC(F)(F)CC3)c(C#N)c2c(=O)n1CCOc1ccc(Cl)cc1-c1ccnc2c(C(=O)O)csc12` [compound 260], the IC50 runs as follows: under setting [2], less than 50 nM; under setting [3], 20.4 nM.

With `COc1ccc2nc(C)n(CCOc3ccc(Cl)cc3-c3ccnc4c(C(=O)O)csc34)c(=O)c2c1C#N` [compound 404], the IC50 under setting [2] was less than 50 nM and the IC50 under setting [3] was 10.1 nM.

For `Cc1nc2cc(C(F)(F)F)cc(C#N)c2c(=O)n1CCOc1ccc(Cl)cc1-c1ccc(C(=O)O)c2ncsc12` [compound 226], the IC50 is 50 to 1000 nM under setting [2] and 70.7 nM under setting [3].
